Drawing on patent US10875851B2, “Factor XIIa inhibitors” (Merck Sharp & Dohme Corp., priority 2016, dated 2020), this text covers IC50 for 9 compounds.

Sequence of human Factor XIIa (P00748 373-615): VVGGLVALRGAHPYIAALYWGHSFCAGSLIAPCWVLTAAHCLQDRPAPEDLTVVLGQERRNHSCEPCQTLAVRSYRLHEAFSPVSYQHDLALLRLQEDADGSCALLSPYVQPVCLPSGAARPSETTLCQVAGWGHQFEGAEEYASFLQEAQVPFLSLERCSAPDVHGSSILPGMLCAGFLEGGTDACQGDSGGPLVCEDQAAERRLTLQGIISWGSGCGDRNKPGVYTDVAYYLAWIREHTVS

This assay concerns the target human Factor XIIa (Homo sapiens (Human), UniProt P00748). In words: Factor XIIa Assay. The conditions noted are these: purified human Factor XIIa 500 pM; substrate n-Acetyl-Lys-Pro-Arg-AFC 100 μM; pH 7.4; read-out: FXIIa IC50. It is filed as biochemical. The protocol: The effectiveness of a compound of the present invention as an inhibitor of Coagulation Factor XIIa can be determined using a relevant purified serine protease, and an appropriate synthetic substrate. The rate of hydrolysis of the chromogenic or fluorogenic substrate by the relevant serine protease was measured both in the absence and presence of compounds of the present invention. Assays were conducted at room temperature or at 37° C. […] A decrease in the rate of fluorescence change in the presence of inhibitor is indicative of enzyme inhibition. Such methods are known to one skilled in the art.
Factor XIIa activity determinations were made in 50 mM HEPES buffer containing 150 mM NaCl, 5 mM CaCl2, and 0.1% PEG 8000 (polyethylene glycol; JT Baker or Fisher Scientific) at pH 7.4. Determinations were made using purified human Factor XIIa at a final concentration of 500 pM (Sekisui Diagnostics) and the synthetic substrate, n-Acetyl-Lys-Pro-Arg-AFC, TFA salt (Sigma #C6608) at a concentration of 100 μM.
Times required to achieve equilibration between enzyme and inhibitor were determined in control experiments. Initial velocities of product formation in the absence (Vo) or presence of inhibitor (Vi) were measured. IC50 was determined as the concentration of I yielding Vi=Vo/2.
A word on the IC50: it is the concentration that gives 50% inhibition. On to `COc1cc(CNC(=O)[C@@H]2CN(C(=O)Oc3ccc4ccccc4c3Cl)CCN2C(=O)[C@H](N)CCCCN(C)C)ccc1CN` [Example 89, 1-chloronaphthalen-2-yl (3S)-3-{[4-(aminomethyl)-3-methoxybenzyl]carbamoyl}-4-(N^6,N^6-dimethyl-D-lysyl)piperazine-1-carboxylate], for which the IC50 worked out at 1.7 nM. With `C[C@@H]1N=C(N2CCN(C(=O)[C@H](N)CCCCN3CCCCC3)[C@H](C(=O)NCc3cccc(Cl)c3)C2)O[C@H]1c1ccccc1` [Example 161, (2S)-N-(3-chlorobenzyl)-4-[(4S,5S)-4-methyl-5-phenyl-4,5-dihydro-1,3-oxazol-2-yl]-1-(6-piperidin-1-yl-D-norleucyl)piperazine-2-carboxamide], the IC50 worked out at 22 nM. Take `COc1cc(CNC(=O)[C@@H]2CN(C3=NC(C)(C)[C@H](c4ccccc4)O3)CCN2C(=O)[C@@H](CCCCN(C)C)N(C)C)ccc1C(N)=O` [Example 154, (2S)-N-(4-carbamoyl-3-methoxybenzyl)-4-[(5S)-4,4-dimethyl-5-phenyl-4,5-dihydro-1,3-oxazol-2-yl]-1-(N^2,N^2,N^6,N^6-tetramethyl-D-lysyl)piperazine-2-carboxamide]: the IC50 was 12.4 nM. For the compound `COc1cc(CNC(=O)[C@@H]2CN(C3=NC(C)(C)[C@H](c4ccccc4)O3)CCN2C(=O)[C@@H](CCCCN(C)C)N(C)C)ccc1CN` [Example 153, (2S)-N-[4-(aminomethyl)-3-methoxybenzyl]-4-[(5S)-4,4-dimethyl-5-phenyl-4,5-dihydro-1,3-oxazol-2-yl]-1-(N^2,N^2,N^6,N^6-tetramethyl-D-lysyl)piperazine-2-carboxamide], the IC50 was 7.4 nM. `CC[C@@H](C)N[C@H](CCCCN1CCCCC1)C(=O)N1CCN(C2=N[C@@H](C)[C@H](c3ccccc3)O2)C[C@H]1C(=O)NCc1cccc(Cl)c1` [Example 170, (2S)-N-(3-chlorobenzyl)-4-[(4S,5S)-4-methyl-5-phenyl-4,5-dihydro-1,3-oxazol-2-yl]-1-{N-[(1R)-1-methylpropyl]-6-piperidin-1-yl-D-norleucyl}piperazine-2-carboxamide]: the IC50 was determined as 2.5 nM. Turning to `Cc1ccc(OC(=O)N2CCN(C(=O)[C@@H](CCCCNC(C)C)NC3CCC4(CC3)CCN(Cc3ccccc3)C4)[C@H](C(=O)NCc3cccs3)C2)c(Cl)c1C` (stereo partly drawn) [Example 105, 2-chloro-3,4-dimethylphenyl (3S)-4-[N^2-(2-benzyl-2-azaspiro[4.5]dec-8-yl)-N^6-(1-methylethyl)-D-lysyl]-3-[(thiophen-2-ylmethyl)carbamoyl]piperazine-1-carboxylate], the IC50 worked out at 0.5 nM. For `CC1(C)N=C(N2CCN(C(=O)[C@@H](CC3CCCCC3)NC3CCCCC3)[C@H](C(=O)NCc3cccs3)C2)OC1c1ccccc1` (stereo partly drawn) [Example 140, (2S)-1-(N,3-dicyclohexyl-D-alanyl)-4-(4,4-dimethyl-5-phenyl-4,5-dihydro-1,3-oxazol-2-yl)-N-(thiophen-2-ylmethyl)piperazine-2-carboxamide], the IC50 was 19 nM. Take `O=C(NCc1cccs1)[C@@H]1CN(C(=O)Oc2cccc3cncnc23)CCN1C(=O)[C@@H](CC1CCCCC1)NC1CCCCC1` [Example 18, quinazolin-8-yl (3S)-4-(N,3-dicyclohexyl-D-alanyl)-3-[(thiophen-2-ylmethyl)carbamoyl]piperazine-1-carboxylate]: the IC50 is 4.5 nM. Take `C[C@@H]1N=C(N2CCN(C(=O)[C@@H](CCCCNS(C)(=O)=O)NC3CCCCC3)[C@H](C(=O)NCc3cccs3)C2)O[C@H]1c1cccc(Br)c1` [Example 124, (2S)-4-[(4S,5S)-5-(3-bromophenyl)-4-methyl-4,5-dihydro-1,3-oxazol-2-yl]-1-[N^2-cyclohexyl-N^6-(methylsulfonyl)-D-lysyl]-N-(thiophen-2-ylmethyl)piperazine-2-carboxamide]: the IC50 came to 24.6 nM.
